Reference: ChEMBL document CHEMBL3608202, “Biarylmethoxy 2-nitroimidazooxazine antituberculosis agents: Effects of proximal ring substitution and linker reversal on metabolism and efficacy” (Bioorg Med Chem Lett, 2015)
Values after ≈ are worked out from the molar mass of the structure shown.

Legend:
[1] = test system: Mycobacterium tuberculosis; assay: Antimycobacterial activity against Mycobacterium tuberculosis infected in mouse assessed as fold reduction of colony forming units in lungs at 100 mg/kg, po administered for 5 days a week for 3 weeks beginning on day 11 post-infection relative to pretomanid; format: functional
[2] = Metabolic stability in human liver microsomes assessed as compound remaining after 1 hr; format: ADME; conditions: read-out: Stability
[3] = test system: Mycobacterium tuberculosis; assay: Antimycobacterial activity against Mycobacterium tuberculosis H37Rv after 11 days by LORA assay; format: functional; conditions: 264 h
[4] = test system: Mycobacterium tuberculosis; assay: Antimycobacterial activity against Mycobacterium tuberculosis H37Rv after 8 days by MABA assay; format: functional; conditions: 192 h
[5] = Metabolic stability in CD1 mouse liver microsomes assessed as compound remaining after 1 hr; format: ADME; conditions: read-out: Stability
Vero = assay: Cytotoxicity against African green monkey Vero cells after 72 hrs; format: cell-based; conditions: Chlorocebus sabaeus
[6] = Half life in CD1 mouse lung at 40 mg/kg, po; format: ADME, organism-based
[7] = Cmax in CD1 mouse lung at 40 mg/kg, po; format: ADME, organism-based; design: dose 40 mg/kg, route oral
[8] = Cmax in CD1 mouse plasma at 40 mg/kg, po; format: ADME, organism-based; design: dose 40 mg/kg, route oral
[9] = Half life in CD1 mouse plasma at 40 mg/kg, po; format: ADME, organism-based
Lung = assay: AUC (0 to infinity) in CD1 mouse lung at 40 mg/kg, po; format: ADME, organism-based; design: dose 40 mg/kg, time infinity, route oral; conditions: in vivo
Plasma = assay: AUC (0 to infinity) in CD1 mouse plasma at 40 mg/kg, po; format: ADME, organism-based; design: dose 40 mg/kg, route oral, time infinity; conditions: in vivo
[10] = Ratio of AUC (0 to infinity) in CD1 mouse lung to AUC (0 to infinity) in CD1 mouse plasma at 40 mg/kg, po; format: ADME, organism-based; conditions: read-out: Ratio AUC
[11] = test system: Mycobacterium tuberculosis; assay: Antimycobacterial activity against Mycobacterium tuberculosis infected in mouse assessed as fold reduction of colony forming units in lungs at 100 mg/kg, po administered for 5 days a week for 3 weeks beginning on day 70 post-infection relative to control; format: functional
[12] = test system: Mycobacterium tuberculosis; assay: Ratio of pretomanid MIC90 to compound MIC90 for Mycobacterium tuberculosis H37Rv after 11 days by LORA assay; format: functional
[13] = test system: Mycobacterium tuberculosis; assay: Ratio of pretomanid MIC90 to compound MIC90 for Mycobacterium tuberculosis H37Rv after 8 days by MABA assay; format: functional

| Structure (SMILES) | remaining at 1 h [2] [%] | MIC90 [3] [µM] | MIC90 [4] [µM] | remaining at 1 h [5] [%] | IC50 (Vero) [µM] | also measured |
| --- | --- | --- | --- | --- | --- | --- |
| N#Cc1cc(-c2ccc(OC(F)(F)F)cc2)ccc1CO[C@@H]1COc2nc([N+](=O)[O-])cn2C1 | 91 | 0.45 (≈ 0.207 µg/mL) | 0.053 (≈ 0.0244 µg/mL) | 88 | > 128 | Ratio [1]: 2.9 |
| O=[N+]([O-])c1cn2c(n1)OCC(COc1ccc(-c3ccc(C(F)(F)F)cc3)nc1)C2 (stereo unspecified) |  | 1.3 (≈ 0.546 µg/mL) | 0.22 (≈ 0.0925 µg/mL) |  | > 128 |  |
| O=[N+]([O-])c1cn2c(n1)OC[C@@H](OCc1c(F)cc(-c3ccc(OC(F)(F)F)cc3)cc1F)C2 | 95 | 1.5 (≈ 0.707 µg/mL) | 0.06 (≈ 0.0283 µg/mL) | 94 | > 128 | Ratio [1]: 0.98 |
| O=[N+]([O-])c1cn2c(n1)OCC(COc1ccc(-c3ccc(OC(F)(F)F)cc3)cc1)C2 (stereo unspecified) | 100 | > 128 | 0.14 (≈ 0.061 µg/mL) | 93 | > 128 | Ratio [1]: 2 |
| N#Cc1cc(-c2ccc(C(F)(F)F)nc2)ccc1CO[C@@H]1COc2nc([N+](=O)[O-])cn2C1 |  | 1.1 (≈ 0.49 µg/mL) | 0.28 (≈ 0.125 µg/mL) |  | > 128 |  |
| O=[N+]([O-])c1cn2c(n1)OC[C@@H](OCc1ccc(-c3ccc(OC(F)(F)F)cc3)cc1F)C2 | 93 | 1.2 (≈ 0.544 µg/mL) | 0.017 (≈ 0.00771 µg/mL) | 85 | > 128 | Ratio [1]: 33; half-life [6]: 28.1 h; Cmax [7]: 12100 ng/mL; Cmax [8]: 6700 ng/mL; half-life [9]: 22.3 h; AUC (Lung): 549 µg/h/mL; AUC (Plasma): 202 µg/h/mL; Kp [10]: 2.7; Ratio [11]: 2.2 |
| O=[N+]([O-])c1cn2c(n1)OCC(COc1ccc(OC(F)(F)F)cc1)C2 (stereo unspecified) |  |  |  |  | > 128 |  |
| O=[N+]([O-])c1cn2c(n1)OC[C@@H](OCc1ccc(-c3ccc(OC(F)(F)F)cc3)cc1Cl)C2 | 99 | 1.6 (≈ 0.752 µg/mL) | 0.17 (≈ 0.0799 µg/mL) | 100 | > 128 | Ratio [1]: 2.1 |
| O=[N+]([O-])c1cn2c(n1)OCC(COCc1ccc(OC(F)(F)F)cc1)C2 (stereo unspecified) | 71 |  |  | 41 | 46 |  |
| O=[N+]([O-])c1cn2c(n1)OCC(COc1ccc(-c3ccc(F)cc3)cn1)C2 (stereo unspecified) |  | 25 (≈ 9.26 µg/mL) | 0.03 (≈ 0.0111 µg/mL) |  | > 128 |  |
| O=[N+]([O-])c1cn2c(n1)OC[C@@H](OCc1c(F)cc(-c3ccc(C(F)(F)F)nc3)cc1F)C2 |  | 2.9 (≈ 1.32 µg/mL) | 0.35 (≈ 0.16 µg/mL) |  | 43 |  |
| O=[N+]([O-])c1cn2c(n1)OC[C@@H](OCc1ccc(-c3ccc(OC(F)(F)F)cc3)c(Cl)c1)C2 |  | 1.5 (≈ 0.705 µg/mL) | 0.21 (≈ 0.0987 µg/mL) |  | > 128 |  |
| O=[N+]([O-])c1cn2c(n1)OC[C@@H](OCc1ccc(OC(F)(F)F)cc1)C2 [PRETOMANID] | 82 | 2.6 (≈ 0.934 µg/mL) | 0.5 (≈ 0.18 µg/mL) |  |  |  |
| O=[N+]([O-])c1cn2c(n1)OCC(COc1ccc(-c3ccc(C(F)(F)F)cc3)cn1)C2 (stereo unspecified) |  | 109 (≈ 45.8 µg/mL) | 0.04 (≈ 0.0168 µg/mL) |  | > 128 |  |
| O=[N+]([O-])c1cn2c(n1)OCC(COc1ccc(-c3ccc(F)cc3)nc1)C2 (stereo unspecified) |  | 2 (≈ 0.741 µg/mL) | 0.15 (≈ 0.0556 µg/mL) |  | > 128 |  |
| O=[N+]([O-])c1cn2c(n1)OCC(COc1ccc(-c3ccc(OC(F)(F)F)cc3)cn1)C2 (stereo unspecified) |  | 100 (≈ 43.6 µg/mL) | 0.045 (≈ 0.0196 µg/mL) |  | > 128 |  |
| O=[N+]([O-])c1cn2c(n1)OC[C@@H](OCc1ccc(-c3ccc(OC(F)(F)F)cc3)c(F)c1)C2 |  | 0.51 (≈ 0.231 µg/mL) | 0.055 (≈ 0.0249 µg/mL) |  | > 128 |  |

| Structure (SMILES) | remaining at 1 h [2] [%] | MIC90 [3] [µM] | MIC90 [4] [µM] | remaining at 1 h [5] [%] | IC50 (Vero) [µM] | also measured |
| --- | --- | --- | --- | --- | --- | --- |
| O=[N+]([O-])c1cn2c(n1)OC[C@@H](COc1ccc(OC(F)(F)F)cc1)C2 | 91 | 1.9 (≈ 0.683 µg/mL) | 0.23 (≈ 0.0826 µg/mL) | 80 | > 128 | Ratio [12]: 5; Ratio [1]: 0.7; Ratio [13]: 2 |
| O=[N+]([O-])c1cn2c(n1)OCC(COCc1ccc(-c3ccc(C(F)(F)F)cc3)cc1)C2 (stereo unspecified) |  | > 128 | 0.49 (≈ 0.212 µg/mL) |  | 38 |  |
| O=[N+]([O-])c1cn2c(n1)OC[C@@H](OCc1ccc(-c3ccc(OC(F)(F)F)cc3)c[n+]1[O-])C2 |  | 32 (≈ 14.5 µg/mL) | 0.05 (≈ 0.0226 µg/mL) |  | > 128 |  |
| O=[N+]([O-])c1cn2c(n1)OC[C@@H](OCc1ccc(-c3ccc(OC(F)(F)F)cc3)cc1C(F)(F)F)C2 | 100 | 2.4 (≈ 1.21 µg/mL) | 0.65 (≈ 0.327 µg/mL) | 96 | > 128 |  |
| O=[N+]([O-])c1cn2c(n1)OCC(COCc1ccc(-c3ccc(F)cc3)cc1)C2 (stereo unspecified) |  | 7.9 (≈ 3.03 µg/mL) | 0.47 (≈ 0.18 µg/mL) |  | 24 |  |
| O=[N+]([O-])c1cn2c(n1)OCC(COc1ccc(-c3ccc(C(F)(F)F)cc3)cc1)C2 (stereo unspecified) |  | 100 (≈ 41.9 µg/mL) | 0.035 (≈ 0.0147 µg/mL) |  | > 128 |  |
| O=[N+]([O-])c1cn2c(n1)OC[C@@H](OCc1ccc(-c3ccc(C(F)(F)F)cn3)cc1F)C2 | 90 | 2.3 (≈ 1.01 µg/mL) | 0.055 (≈ 0.0241 µg/mL) | 77 | > 128 | Ratio [1]: 51 |
| COc1cc(-c2ccc(OC(F)(F)F)cc2)ccc1CO[C@@H]1COc2nc([N+](=O)[O-])cn2C1 | 88 | 5.5 (≈ 2.56 µg/mL) | 0.64 (≈ 0.298 µg/mL) | 87 | > 128 |  |
| O=[N+]([O-])c1cn2c(n1)OCC(COc1ccc(-c3ccc(OC(F)(F)F)cc3)nc1)C2 (stereo unspecified) |  | 6.9 (≈ 3.01 µg/mL) | 0.15 (≈ 0.0655 µg/mL) |  | > 128 |  |
| O=[N+]([O-])c1cn2c(n1)OC[C@@H](OCc1c(Cl)cc(-c3ccc(OC(F)(F)F)cc3)cc1Cl)C2 | 98 | 11 (≈ 5.55 µg/mL) | 0.62 (≈ 0.313 µg/mL) | 93 | > 128 |  |
| O=[N+]([O-])c1cn2c(n1)OC[C@@H](OCc1ccc(-c3ccc(OC(F)(F)F)cc3)cc1)C2 |  |  |  |  |  | AUC (Lung): 218 µg/h/mL; AUC (Plasma): 198 µg/h/mL |
| O=[N+]([O-])c1cn2c(n1)OC[C@@H](OCc1ccc(-c3ccc(C(F)(F)F)nc3)cc1F)C2 | 96 | 0.68 (≈ 0.298 µg/mL) | 0.13 (≈ 0.057 µg/mL) | 78 | > 128 | Ratio [1]: 13 |
| O=[N+]([O-])c1cn2c(n1)OCC(COc1ccc(-c3ccc(F)cc3)cc1)C2 (stereo unspecified) |  | 108 (≈ 39.9 µg/mL) | 0.03 (≈ 0.0111 µg/mL) |  | > 128 |  |
| O=[N+]([O-])c1cn2c(n1)OC[C@@H](OCc1ccc(-c3ccc(C(F)(F)F)nc3)c(F)c1)C2 |  | 0.9 (≈ 0.395 µg/mL) | 0.25 (≈ 0.11 µg/mL) |  | > 128 |  |
| O=[N+]([O-])c1cn2c(n1)OC[C@H](COc1ccc(OC(F)(F)F)cc1)C2 | 90 | 9 (≈ 3.23 µg/mL) | 0.5 (≈ 0.18 µg/mL) | 72 | > 128 | Ratio [12]: 5; Ratio [1]: 0.41; Ratio [13]: 2 |
| O=[N+]([O-])c1cn2c(n1)OCC(COCc1ccc(-c3ccc(OC(F)(F)F)cc3)cc1)C2 (stereo unspecified) |  | > 128 | 0.3 (≈ 0.135 µg/mL) |  | > 128 |  |
| O=[N+]([O-])c1cn2c(n1)OC[C@@H](OCc1ccc(-c3ccc(OC(F)(F)F)cc3)cc1OC(F)(F)F)C2 | 97 | 7.5 (≈ 3.9 µg/mL) | 0.45 (≈ 0.234 µg/mL) | 100 | > 128 |  |
